According to US5362724A, “Thioalkylthio carbacephalosporin derivatives” (Shionogi & Co., Ltd., priority 1992, dated 1994):
Values after ≈ are worked out from the molar mass of the structure shown.

Tests used:
E. coli EC-14 = assay: In vitro antibacterial activity (MIC, two-fold agar dilution) against E. coli EC-14; assay type: cell-based; settings: Escherichia coli, EC14
Protocol: (§1) The in vitro antibacterial activity of a compound as prepared in the foregoing Example was evaluated as follows. A compound to be tested was dissolved in 0.01N aqueous solution of sodium hydrogen carbonate and the solution was applied to an agar plate and the minimal inhibitory concentration (MIC) against each bacterium was measured by two-fold dilution method according to the standard method of the Japan Society of Chemotherapy.
(§2) In the assay, as a control compound, 7β-[(Z)-2-(2-amino-4-thiazolyl)-2-hydroxyiminoacetamido]-3-(1,2,3-triazol-4-yl)thiomethylthio-3-cephem-4-carboxylic acid (a thiomethylthio cephalosporin disclosed in U.S. patent application Ser. No. 07/729,413, filed on Jul. 12, 1991, now U.S. Pat. No. 5,214,037, and EPO Application Publication No. 0 467 647 A2) was used.
(§3) In the tables, Compound A is a compound of the invention and Compound B is a control compound.

E. cloacae ATCC 13047 = assay: In vitro antibacterial activity (MIC, two-fold agar dilution) against E. cloacae ATCC 13047; assay type: cell-based; settings: Enterobacter cloacae, ATCC13047
Protocol: as §1, §2, §3

K. pneumoniae SRI = assay: In vitro antibacterial activity (MIC, two-fold agar dilution) against K. pneumoniae SRI; assay type: cell-based; settings: Klebsiella pneumoniae
Protocol: as §1, §2, §3

E. cloacae SR233 = assay: In vitro antibacterial activity (MIC, two-fold agar dilution) against E. cloacae SR233; assay type: cell-based; settings: Enterobacter cloacae
Protocol: as §1, §2, §3

[1] = tested on: S. maecescense ATCC 13880; assay: In vitro antibacterial activity (MIC, two-fold agar dilution) against S. marcescense ATCC 13880; assay type: cell-based, Seratia marcescense
Protocol: as §1, §2, §3

E. coli SR73 = assay: In vitro antibacterial activity (MIC, two-fold agar dilution) against E. coli SR73; assay type: cell-based; settings: Escherichia coli
Protocol: as §1, §2, §3

[2] = Binding ability to plasma proteins; assay type: in vitro ADME; settings: tentative value
[3] = In vivo pharmacokinetics, blood level in mice after administration; settings: mouse, 10 mg/kg, 3 hr after administration
Protocol: The in vivo pharmacokinetics was also investigated in mice by measuring the blood level at 3 hr after administrating a test compound to a mouse (10 mg/kg).
as §2, §3

E. coli SR377 = assay: In vitro antibacterial activity (MIC, two-fold agar dilution) against E. coli SR377; assay type: cell-based; settings: Escherichia coli
Protocol: as §1, §2, §3

E. coli JC-2 = assay: In vitro antibacterial activity (MIC, two-fold agar dilution) against E. coli JC-2; assay type: cell-based; settings: Escherichia coli, JC2
Protocol: as §1, §2, §3

Row | SMILES | MIC (E. coli EC-14) [mg/L] | MIC (E. cloacae ATCC 13047) [mg/L] | MIC (K. pneumoniae SRI) [mg/L] | MIC (E. cloacae SR233) [mg/L] | MIC [1] [mg/L] | MIC (E. coli SR73) [mg/L] | fraction unbound [2] | concentration at 3 h [3] [µg/mL] | MIC (E. coli SR377) [mg/L] | MIC (E. coli JC-2) [mg/L]
1 | Nc1nc(/C(=N/O)C(=O)N[C@@H]2C(=O)N3C(C(=O)O)=C(SCSc4c[nH]nn4)CC[C@H]23)cs1 [Compound A, 7β-[(Z)-2-(2-Aminothiazol-4-yl)-2-hydroxyiminoacetamido]-3-(1,2,3-triazol-4-ylthiomethylthio)-1-carba-3-cephem-4-carboxylic acid] | 0.025 (≈ 0.0503 µM) | 12.5 (≈ 25.2 µM) | 0.025 (≈ 0.0503 µM) | 0.1 (≈ 0.201 µM) | 0.2 (≈ 0.403 µM) | 0.39 (≈ 0.785 µM) | 0.1 | 82 | 0.2 (≈ 0.403 µM) | 0.05 (≈ 0.101 µM)
2 | Nc1nc(/C(=N/O)C(=O)N[C@@H]2C(=O)N3C(C(=O)O)=C(SCSc4c[nH]nn4)CS[C@H]23)cs1 [Compound B, 7β-[(Z)-2-(2-amino-4-thiazolyl)-2-hydroxyiminoacetamido]-3-(1,2,3-triazol-4-yl)thiomethylthio-3-cephem-4-carboxylic acid] | 0.1 (≈ 0.194 µM) | 100 (≈ 194 µM) | 0.1 (≈ 0.194 µM) | 0.8 (≈ 1.55 µM) | 3.2 (≈ 6.22 µM) | 1.6 (≈ 3.11 µM) | 0.04 | 18 | 0.8 (≈ 1.55 µM) | 0.3 (≈ 0.583 µM)
